Reference: patent publication EP0953345A1, “Use of at least a hydroxystilbene as an agent for decreasing micro-organism adhesion” (priority 1998, dated 1999)

System: Staphylococcus epidermis
Experiment: ex vivo bacteria/skin adhesion model on intact human skin explants (3H-thymidine-labelled bacteria, liquid scintillation counting)
Format: cell-based
From the text: L'activité du resvératrol sur l'adhésion de micro-organismes sur la peau ou sur les muqueuses humaines est testée sur un modèle d'adhésion bactéries/peau, tel que décrit ci-après.
Ce modèle d'adhésion bactéries/peau ex vivo est basé sur l'utilisation d'explants de peau humaine intacte montée en sandwich entre une plaque 96 puits sans fond et un support en Plexiglas. Les puits individualisés étanches permettent de tester dans un format standard l'effet du resvératrol sur l'adhésion de Staphylococcus epidermis (bactéries résidentes) à la surface de la peau. Les bactéries sont radio marquées en phase de croissance par incorporation de 3H-thymidine. Cette flore bactérienne est ensuite déposée dans chaque puits. Après une heure d'incubation à 20°C, les puits sont lavés trois fois avec du tampon phosphate salin (PBS) ce qui permet d'éliminer les bactéries libres. Le resvératrol est ensuite ajouté à 0,1 µM et 10 µM et incubé 1 heure à 20°C. A l'issue de cette incubation le contenu de chaque puits est récupéré et compté en scintillation liquide (bactéries désorbées). Les puits sont ensuite lavés avec une solution chaotropique qui permet d'éluer les bactéries adhérentes. Les solutions de lavages sont également compté en scintillation liquide (bactéries adhérentes). Un témoin positif (Fucogel® Acide (poly-[(α-1,3)-Fuc-(α-1,3)-Gal-(α-1,3)-galacturonique]) est inclus à l'étude comme référence.

[1] = Staphylococcus, 1 h, read-out: Bactéries adhérentes
[2] = Staphylococcus, read-out: inhibition de l'adhésion des bactéries

For `Oc1ccc(C=Cc2cc(O)cc(O)c2)cc1` [resvératrol, 3,4',5-trihydroxystilbène], the “dose dependence of the activity on adhesion of bacteria to human skin (in words)” value (0,1 µM and 10 µM) was “dose dépendante”, the activity at 0.1 µM [1] was 71% and the activity at 10 µM [1] was 64%. For the same compound, the inhibition at 1 µM [2] was 29% and the inhibition at 10 µM [2] was 36%.
